This is an account of results in ChEMBL document CHEMBL3046775, “Synthesis and evaluation of 7-substituted-3,4-dihydrobenzo[f][1,4]oxazepin-5(2H)-ones as anticonvulsant and hypnotic agents” (Med Chem Res, 2011).

Molecules are shown by their SMILES. The source made the active and inactive calls. No cut-off for these calls is given here.

Series [1] has as its system Mus musculus. The series is described as follows: Neurotoxicity against Mus musculus (mouse) at 100 mg/kg, ip measured at 4 hr by rotarod test. The series is classed as toxicity, organism-based. Set-up: dose 100 mg/kg, route intraperitoneal. The following applies: in vivo.
Series [2] relates to Mus musculus. The series is described as follows: Neurotoxicity against Mus musculus (mouse) at 100 mg/kg, ip measured at 0.5 hr by rotarod test. The series is classed as toxicity, organism-based. Set-up: dose 100 mg/kg, route intraperitoneal. The settings on record: in vivo.
In series [3] the test system is Mus musculus. Put plainly: Anticonvulsant activity in Mus musculus (mouse) assessed as protection against maximal electroshock-induced seizures at 100 mg/kg, ip administered 30 min prior to electroshock-challenge measured at 4 hr. The series is classed as functional, organism-based. Set-up: dose 100 mg/kg.
The test system of series [4] is Mus musculus. Put plainly: Anticonvulsant activity in Mus musculus (mouse) assessed as protection against maximal electroshock-induced seizures at 100 mg/kg, ip administered 30 min prior to electroshock-challenge measured at 0.5 hr. In kind it is functional, organism-based. Further details: dose 100 mg/kg.
Series [5] concerns Mus musculus. Put plainly: Hypnotic activity in Mus musculus Kunming (mouse) assessed as increase in phenobarbital-induced sleep duration at 60 mg/kg, ip administered 30 min prior to phenobarbital-induction. The series is classed as functional, organism-based. Further details: dose 60 mg/kg.
Series [6] is described as follows: Protective index, ratio of TD50 for neurotoxicity to ED50 for anticonvulsant activity in mouse. The series is classed as toxicity, organism-based. The settings on record: in vivo, read-out: Ratio TD50/ED50.
Series [7] can be described thus: Neurotoxicity against ip dosed Mus musculus (mouse) by rotarod test. The series is classed as toxicity, organism-based. The following applies: in vivo.
In series [8] the test system is Mus musculus. The series is described as follows: Anticonvulsant activity in ip dosed Mus musculus (mouse) assessed as protection against maximal electroshock-induced seizures administered 30 min prior to electroshock-challenge measured at 4 hr. The series is classed as functional.
The subject of series [9] is Mus musculus. The series is described as follows: Neurotoxicity against Mus musculus (mouse) at 300 mg/kg, ip measured at 4 hr by rotarod test. Further details: dose 300 mg/kg, route intraperitoneal. The series is classed as toxicity, organism-based. The settings on record: in vivo.
For series [10], the system named is Mus musculus. Put plainly: Neurotoxicity against Mus musculus (mouse) at 300 mg/kg, ip measured at 0.5 hr by rotarod test. The series is classed as toxicity, organism-based. Further details: dose 300 mg/kg, route intraperitoneal. The following applies: in vivo.
The subject of series [11] is Mus musculus. Put plainly: Anticonvulsant activity in Mus musculus (mouse) assessed as protection against maximal electroshock-induced seizures at 300 mg/kg, ip administered 30 min prior to electroshock-challenge measured at 4 hr. In kind it is functional, organism-based. Further details: dose 300 mg/kg.
The test system of series [12] is Mus musculus. The series is described as follows: Anticonvulsant activity in Mus musculus (mouse) assessed as protection against maximal electroshock-induced seizures at 300 mg/kg, ip administered 30 min prior to electroshock-challenge measured at 0.5 hr. The series is classed as functional, organism-based. Set-up: dose 300 mg/kg.
Series [13] has as its system Mus musculus. The series is described as follows: Hypnotic activity in Mus musculus Kunming (mouse) assessed as increase in phenobarbital-induced sleep duration at 10 mg/kg, ip administered 30 min prior to phenobarbital-induction. The series is classed as functional, organism-based. Set-up: dose 10 mg/kg.
Series [14] deals with Mus musculus. Put plainly: Hypnotic activity in ip dosed Mus musculus Kunming (mouse) assessed as increase in phenobarbital-induced sleep duration administered 30 min prior to phenobarbital-induction. In kind it is functional, organism-based.
Series [15] concerns Mus musculus. The series is described as follows: Hypnotic activity in Mus musculus Kunming (mouse) assessed as increase in phenobarbital-induced sleep duration at 60 mg/kg, ip administered 30 min prior to phenobarbital-induction (reference value: 20.9 +/- 2.31 min). In kind it is functional. The following applies: route intraperitoneal.
Series [16] deals with Mus musculus. Put plainly: Hypnotic activity in Mus musculus Kunming (mouse) assessed as increase in phenobarbital-induced sleep duration at 30 mg/kg, ip administered 30 min prior to phenobarbital-induction. Further details: dose 30 mg/kg. The series is classed as functional, organism-based.
For series [17], the system named is Mus musculus. Put plainly: Anticonvulsant activity in Mus musculus (mouse) assessed as protection against maximal electroshock-induced seizures at 30 mg/kg, ip administered 30 min prior to electroshock-challenge measured at 4 hr. The series is classed as functional, organism-based. Further details: dose 30 mg/kg.
Series [18] deals with Mus musculus. The series is described as follows: Anticonvulsant activity in Mus musculus (mouse) assessed as protection against maximal electroshock-induced seizures at 30 mg/kg, ip administered 30 min prior to electroshock-challenge measured at 0.5 hr. Further details: dose 30 mg/kg. In kind it is functional, organism-based.

As for `O=C1NCCOc2ccc(OCc3c(Cl)cccc3Cl)cc21`, the Activity result was “Non-toxic” in the series on Mus musculus [1] and “Toxic” in the series with Mus musculus [2]. The outcome with Mus musculus [3] and in the series on Mus musculus [4] was inactive.

Turning to `CN1CCN(C(=O)OC2c3nccnc3C(=O)N2c2ccc(Cl)cn2)CC1` (stereo not drawn), the result in the series with Mus musculus [5] was Active.

Take `CCCOc1ccc2c(c1)C(=O)NCCO2`: the Activity result in the series on Mus musculus [1] is “Non-toxic”; in the series with Mus musculus [2] it was “Toxic”. For the same molecule, in [6], the selectivity ratio was 2.2. For the same molecule, in series [7], the TD50 was found to be 170 mg/kg. The ED50 with Mus musculus [8] came out at 78.3 mg/kg. In addition, in the series with Mus musculus [3], the outcome was inactive. The result in the series on Mus musculus [4] was Active.

For `CCC1(c2ccccc2)C(=O)NC(=O)NC1=O` [PHENOBARBITAL], the ED50 with Mus musculus [8] stood at 21.8 mg/kg.

Regarding `NC(=O)N1c2ccccc2C=Cc2ccccc21` [CARBAMAZEPINE], the selectivity ratio in [6] was found to be 6.4.

With `O=C1NCCOc2ccc(OCc3ccccc3F)cc21`, the Activity entry was “Non-toxic” with Mus musculus [1] and “Toxic” in the series with Mus musculus [2]. Moreover, the selectivity ratio in series [6] came out at 1.2. The TD50 in series [7] worked out at 52.8 mg/kg. In addition, in the series on Mus musculus [8], the ED50 came to 45.6 mg/kg. Also, the result in the series on Mus musculus [3] was inactive. Moreover, the result in the series on Mus musculus [4] was Active.

`O=C1CCc2cc(OCc3ccccc3)ccc2N1` returned a TD50 in [7] of more than 300 mg/kg.

Take `O=C1NCCOc2ccc(OCc3cccc(Cl)c3)cc21`: the figures for the Activity entry in the series with Mus musculus [1] and in the series with Mus musculus [2] were “Non-toxic” and “Toxic”, respectively. Also, the outcome in the series on Mus musculus [3] was inactive. For the same molecule, the outcome with Mus musculus [4] was Active.

Consider `O=C1NCCOc2ccc(OCc3ccc(Br)cc3)cc21`, for which the Activity result in the series on Mus musculus [9] is “Non-toxic”; with Mus musculus [10], “Toxic”. Besides, the outcome in the series on Mus musculus [11] was inactive. The result in the series with Mus musculus [12] was Active.

`O=C1NCCOc2ccc(OCc3ccc(Cl)cc3)cc21`: the Activity entry with Mus musculus [1] was “Non-toxic”; with Mus musculus [2] it was “Toxic”. The result in the series on Mus musculus [3] and in the series on Mus musculus [4] was inactive.

Take `CCCCCOc1ccc2c(c1)C(=O)NCCO2`: the Activity entry in the series with Mus musculus [1] is reported as “Non-toxic”; with Mus musculus [2], “Toxic”. Also, in series [6], the selectivity ratio was 1.9. Besides, in [7], the TD50 was 106 mg/kg. In addition, the ED50 in the series on Mus musculus [8] turned out to be 56.8 mg/kg. The result with Mus musculus [3] was inactive. Moreover, the result with Mus musculus [4] was Active.

Turning to `CCCCOc1ccc2c(c1)C(=O)NCCO2`, the Activity result is reported as “Non-toxic” with Mus musculus [1] and “Toxic” with Mus musculus [2]. Further, the result in the series with Mus musculus [3] and in the series with Mus musculus [4] was Active.

In the case of `O=C1NCCOc2ccc(OCc3ccc(F)cc3)cc21`, the Activity result with Mus musculus [9] was “Non-toxic”; with Mus musculus [10], “Toxic”. For the same molecule, the outcome in the series with Mus musculus [11] and with Mus musculus [12] was Active.

On to `O=C1NCCOc2ccc(OCc3ccccc3Br)cc21`, for which the Activity entry in the series with Mus musculus [1] is on record as “Non-toxic”; in the series with Mus musculus [2], “Toxic”. Also, the outcome with Mus musculus [3] and with Mus musculus [4] was inactive.

For the molecule `CCCCCCOc1ccc2c(c1)C(=O)NCCO2`, the values for the Activity entry with Mus musculus [1] and in the series on Mus musculus [2] were “Non-toxic” and “Toxic”, respectively. In addition, in series [6], the selectivity ratio was determined as 2.2. The molecule further displayed a TD50 in [7] of 106 mg/kg. Besides, the ED50 in the series on Mus musculus [8] is 47.3 mg/kg. In addition, the outcome in the series with Mus musculus [3] and in the series on Mus musculus [4] was Active.

On to `COc1ccc(COc2ccc3c(c2)C(=O)NCCO3)cc1OC`, for which the Activity result is on record as “Non-toxic” with Mus musculus [1] and “Toxic” with Mus musculus [2]. Moreover, the result with Mus musculus [3] and in the series with Mus musculus [4] was inactive.

Regarding `O=C1NCCOc2ccc(OCc3ccccc3Cl)cc21`, the Activity entry in the series on Mus musculus [9] is reported as “Non-toxic”; with Mus musculus [10] it was “Toxic”. Besides, the outcome in the series with Mus musculus [11] was inactive. Moreover, the result with Mus musculus [12] was Active.

For `CCCCCCCCCCCCOc1ccc2c(c1)C(=O)NCCO2`, the Activity result in the series with Mus musculus [9] is reported as “Non-toxic”; in the series on Mus musculus [10] it was “Toxic”. Further, in the series with Mus musculus [11], the result was inactive. Further, the outcome with Mus musculus [12] was Active.

For the molecule `CCCCCCCCOc1ccc2c(c1)C(=O)NCCO2`, the Activity entry in the series on Mus musculus [1] is recorded as “Non-toxic”; with Mus musculus [2] it was “Toxic”. Besides, the result in the series on Mus musculus [3] was inactive. In the series with Mus musculus [4], the outcome was Active.

As to `Cc1ccc(COc2ccc3c(c2)C(=O)NCCO3)cc1`, the Activity entry is on record as “Non-toxic” in the series on Mus musculus [1] and “Toxic” in the series on Mus musculus [2]. Also, the result in the series with Mus musculus [3] and in the series on Mus musculus [4] was inactive.

Take `COc1ccc(COc2ccc3c(c2)C(=O)NCCO3)cc1`: the Activity result in the series on Mus musculus [1] and in the series on Mus musculus [2] was “Non-toxic” each time. Further, the result in the series on Mus musculus [3] and in the series on Mus musculus [4] was inactive.

As to `CCCCCCCOc1ccc2c(c1)C(=O)NCCO2`, the results for the Activity result with Mus musculus [1], with Mus musculus [14] and in the series on Mus musculus [2] were “Non-toxic”, “Dose-dependent effect” and “Toxic”, respectively. Besides, the outcome with Mus musculus [13] and with Mus musculus [17] was inactive. In addition, in [6], the selectivity ratio came to 2.5. Also, the TD50 in [7] came to 47.3 mg/kg. The median effective dose (ED50) in the series on Mus musculus [8] was 19 mg/kg. For the same molecule, the Time in the series with Mus musculus [15] is 45.7 min. The result in the series with Mus musculus [16] and in the series with Mus musculus [18] was Active.

As for `O=C1NCCOc2ccc(OCc3ccccc3)cc21`, the Activity entry in the series on Mus musculus [1] is “Non-toxic”; with Mus musculus [2] it was “Toxic”. Further, the selectivity ratio in [6] was 1. The molecule also showed a TD50 in series [7] of 76.2 mg/kg. Moreover, in the series on Mus musculus [8], the ED50 is 73.1 mg/kg. For the same molecule, the result with Mus musculus [3] was inactive. Also, the result with Mus musculus [4] was Active.

On to `CCOc1ccc2c(c1)C(=O)NCCO2`, for which the Activity entry with Mus musculus [1] and with Mus musculus [2] was “Non-toxic” throughout. Further, the outcome in the series with Mus musculus [3] and in the series on Mus musculus [4] was inactive.

As to `O=C1NCCOc2ccc(OCc3cccc(F)c3)cc21`, the figures for the Activity entry in the series with Mus musculus [1] and with Mus musculus [2] were “Non-toxic” and “Toxic”, respectively. In series [6], the selectivity ratio is 1. The same molecule gave a TD50 in [7] of 73.1 mg/kg. Moreover, the ED50 in the series with Mus musculus [8] was found to be 73.1 mg/kg. The result in the series with Mus musculus [3] was inactive. The result with Mus musculus [4] was Active.
